Data set [1] is filed under the species Rattus norvegicus. Description: Cytotoxicity against Wistar rat primary astrocytes assessed as inhibition of cell viability at 100 uM after 72 hrs by MTT assay. The format is toxicity. To be noted: astrocyte. Background: Tetrazolium dyes change colour on reduction, which living cells bring about.
For data set [2], the species on record is Rattus norvegicus. Description: Cytotoxicity against Wistar rat primary astrocytes assessed as inhibition of cell viability at 250 uM after 72 hrs by MTT assay. It counts as toxicity. To be noted: astrocyte.
Data set [3] concerns C6. Description: Cytotoxicity against Wistar rat C6 cells assessed as inhibition of cell viability at 25 uM after 72 hrs by MTT assay. The format is functional, cell-based.
In data set [4] the test system is C6. Description: Induction of necrosis in Wistar rat C6 cells at 50 to 100 uM after 72 hrs by propidium iodide staining based fluorescence microscopic analysis. It counts as functional, cell-based.
Data set [5] in a line: Cytotoxicity against Wistar rat C6 cells assessed as decrease in cell viability at 100 uM after 72 hrs by MTT assay relative to control. It counts as functional.
The test system of data set [6] is C6. Description: Induction of necrosis in Wistar rat C6 cells assessed as change in cell morphology at 50 to 100 uM. The format is functional, cell-based.
Data set [7] has as its system C6. Description: Cytotoxicity against Wistar rat C6 cells assessed as inhibition of cell viability at 25 uM after 48 hrs by MTT assay. It counts as functional, cell-based.
Data set [8] deals with C6. Description: Induction of necrosis in Wistar rat C6 cells assessed as lowering of cell density at 50 to 100 uM. The format is functional, cell-based.
Data set [9] is described as follows: Cytotoxicity against Wistar rat C6 cells assessed as decrease in cell viability at 100 uM after 48 hrs by MTT assay relative to control. The format is functional.
The test system of data set [10] is C6. Description: Cytotoxicity against Wistar rat C6 cells assessed as inhibition of cell viability at 5 uM after 72 hrs by MTT assay. The format is functional, cell-based.
The subject of data set [11] is C6. Description: Cytotoxicity against Wistar rat C6 cells assessed as inhibition of cell viability at 50 uM after 48 hrs by MTT assay. The format is functional, cell-based.
Data set [12] concerns C6. Description: Cytotoxicity against Wistar rat C6 cells assessed as inhibition of cell viability at 50 uM after 72 hrs by MTT assay. It counts as functional, cell-based.

SMILES strings stand for the structures. Calls of active or inactive are those of the source. No cut-off for these calls is given here.

Regarding `CSc1ccc(C2SCC(=O)N2c2ccc(SC)cc2)cc1` (stereo not drawn), the Activity result in the data set listed under Rattus norvegicus [1] and in the data set filed under Rattus norvegicus [2] was “Non-Toxic” throughout.
As to `CS(=O)(=O)c1ccc(C2SCC(=O)N2c2ccccn2)cc1` (stereo not drawn), the Activity result in the data set listed under Rattus norvegicus [1] and in the data set listed under Rattus norvegicus [2] was “Non-Toxic” throughout.
On to `CS(=O)(=O)c1ccc(C2SCC(=O)N2c2ccc3c(c2)OCO3)cc1` (stereo not drawn), for which the Activity result in the data set filed under Rattus norvegicus [1] and in the data set filed under Rattus norvegicus [2] was “Non-Toxic” in each case.
For the molecule `CS(=O)(=O)c1ccc(C2SCC(=O)N2Cc2ccccn2)cc1` (stereo not drawn), the inhibition entry with C6 [3] and with C6 [7] was “Active” each time. Besides, the Activity result in the data set listed under Rattus norvegicus [1] is listed as “Non-Toxic”; in data set [5], 77%; in the data set listed under Rattus norvegicus [2], “Non-Toxic”; in [9], 47.2%. The result in the data set on C6 [4], in the data set with C6 [6] and in the data set with C6 [8] was Active.
In the case of `CSc1ccc(C2SCC(=O)N2Cc2ccccn2)cc1` (stereo not drawn), the inhibition result in the data set with C6 [10] was “Active”. The Activity result in the data set listed under Rattus norvegicus [1] was “Non-Toxic”; in data set [5] it was 75%; in the data set listed under Rattus norvegicus [2], “Non-Toxic”; in data set [9], 48%. Further, the result with C6 [4], with C6 [6] and in the data set on C6 [8] was Active.
Regarding `CCN(CC)CCCN1C(=O)CSC1c1ccc(S(C)(=O)=O)cc1` (stereo not drawn), the Activity result in the data set listed under Rattus norvegicus [1] is given as “Non-Toxic”; in the data set filed under Rattus norvegicus [2], “Toxic”.
As for `CSc1ccc(C2SCC(=O)N2CCCN2CCCCC2)cc1` (stereo not drawn), the inhibition result in the data set on C6 [10] is “Active”. Moreover, the Activity entry is “Non-Toxic” in the data set listed under Rattus norvegicus [1], 78% in data set [5], “Toxic” in the data set filed under Rattus norvegicus [2] and 52.2% in data set [9]. Further, the result with C6 [4], with C6 [6] and with C6 [8] was Active.
Consider `CSc1ccc(N2C(=O)CSC2c2ccc(S(C)(=O)=O)cc2)cc1` (stereo not drawn), for which the Activity entry in the data set listed under Rattus norvegicus [1] and in the data set filed under Rattus norvegicus [2] was “Non-Toxic” each time.
As to `Cn1nnc2c(C(N)=O)ncn2c1=O` [TEMOZOLOMIDE], the values for the Activity in [5] and in [9] were 39.7% and 42.3%, respectively.
Regarding `CS(=O)(=O)c1ccc(C2SCC(=O)N2CCN2CCCCC2)cc1` (stereo not drawn), the Activity entry in the data set listed under Rattus norvegicus [1] and in the data set listed under Rattus norvegicus [2] was “Non-Toxic” throughout.
Take `CSc1ccc(C2SCC(=O)N2CCN2CCCCC2)cc1` (stereo not drawn): the Activity result in the data set listed under Rattus norvegicus [1] is listed as “Non-Toxic”; in data set [5], 61%; in the data set filed under Rattus norvegicus [2], “Toxic”.
For the molecule `CSc1ccc(C2SCC(=O)N2c2ccccn2)cc1` (stereo not drawn), the Activity result in the data set filed under Rattus norvegicus [1] and in the data set filed under Rattus norvegicus [2] was “Non-Toxic” in each case.
On to `CS(=O)(=O)c1ccc(C2SCC(=O)N2CCCN2CCCCC2)cc1` (stereo not drawn), for which the Activity entry in the data set listed under Rattus norvegicus [1] and in the data set filed under Rattus norvegicus [2] was “Non-Toxic” throughout.
`CSc1ccc(C2SCC(=O)N2c2ccc3c(c2)OCO3)cc1` (stereo not drawn): the Activity result in the data set filed under Rattus norvegicus [1] is “Non-Toxic”; in [5], 81.7%; in the data set filed under Rattus norvegicus [2] it was “Non-Toxic”; in data set [9], 61.2%. For the same molecule, the inhibition entry with C6 [11] and with C6 [12] was “Active” in each case. Besides, the outcome in the data set on C6 [4], in the data set on C6 [6] and in the data set with C6 [8] was Active.
For `CCN(CC)CCCN1C(=O)CSC1c1ccc(SC)cc1` (stereo not drawn), the Activity result in the data set filed under Rattus norvegicus [1] is “Non-Toxic”; in [5], 67.5%; in the data set filed under Rattus norvegicus [2], “Toxic”.
